Experimental data: patent US10800788B2, “4-(aryl)-N-(3-alkoxyfuro[2,3-b]pyrazin-2-yl)-piperazine-1-carboxamide derivative and antiproliferative effect thereof” (Dongguk University Industry-Academic Cooperation Foundation, priority 2016, dated 2020)

Experiments:
[1] = test system: MDA-MB-231 (breast cancer) cell line; assay: Cell growth inhibition experiment (SRB), MDA-MB-231; type: cell-based, human; settings: Homo sapiens, MDA-MB-231, 96 h, 96 hours incubation
Experimental: (§1) The cell lines below were used in order to confirm the efficacy of the compounds synthesized in Examples 1 to 60. Human PANC-1 (pancreatic cancer) and MDA-MB-231 (breast cancer) cell lines were obtained from the American Type Culture Collection (ATCC; Manassas, Va.); and HN31 (head and neck cancer) and UMRC2 (kidney cancer) cell lines were secured from the United States National Institutes of Health (Bethesda, Md.). The MDA-MB-231, UMRC2, HN31, and PANC-1 cell lines were cultured in Dulbecco modified Eagle medium (DMEM; Invitrogen, Carlsbad, Calif.) containing FBS (10%), HEPES (10 mM), penicillin (100 U/mL), and streptomycin (100 μg/mL). All cell lines were cultured in an incubator (37° C., 5% CO2).
(§2) The 4-(aryl)-N-(3-alkoxyfuro[2,3-b]pyrazin-2-yl)-piperazine-1-carboxamide derivative compounds synthesized according to Examples 1 to 60 of the present invention were treated with various human tissue-derived cancer cell lines cultured according to Experimental Example 1, and thus the inhibitory effect of the growth of human cancer cells was confirmed. The cell growth inhibition experiment was conducted using the sulforhodamine B (SRB) technique (Skehan et al., J. National Cancer Institute, 1990, 82: 1107-1112). Specifically, each cell line was seeded in a 96-well plate at a density of 2 to 3×10^3 cells/well, cultured overnight, and then treated with the 4-(aryl)-N-(3-alkoxyfuro[2,3-b]pyrazin-2-yl)-piperazine-1-carboxamide derivative compounds of the present invention. The experiment was repeated 3 times for each compound. Cells treated with each compound were additionally incubated for 96 hours, fixed with 10% trichloroacetic acid (TCA), and then left at 4° C. for 1 hour. The resultant was washed 3 times with distilled water. Thereafter, each cell was treated with 0.4% sulforhodamine B dissolved in 1% acetic acid, stained for 30 minutes, and then washed 4 times with 1% acetic acid. The resultant was dried in the air. After shaking the resultant in Tris solution (10 mM) for 5 minutes, the absorbance was measured at 530 nm using a Benchmark Plus Microplate reader (Bio-Rad Laboratories, Hercules, Calif.).
(§3) In order to convert the OD530 value to the number of viable cells per each well, the measured OD530 value was compared to the standard OD530-vs.-cell number curve of each cell line. The percent survival was calculated using the following formula: % survival=Nlive cells(test)/Nlive cells(control)×100

[2] = test system: UMRC2 (kidney cancer) cell line; assay: Cell growth inhibition experiment (SRB), UMRC2; type: cell-based, human; settings: Homo sapiens, UMRC2, 96 h, 96 hours incubation
Experimental: as §1, §2, §3

[3] = test system: PANC-1 (pancreatic cancer) cell line; assay: Cell growth inhibition experiment (SRB), PANC-1; type: cell-based; settings: Homo sapiens, PANC-1, 96 h, 96 hours incubation
Experimental: as §1, §2, §3

[4] = test system: HN31 (head and neck cancer) cell line; assay: Cell growth inhibition experiment (SRB), HN31; type: cell-based, human; settings: Homo sapiens, 96 h, 96 hours incubation
Experimental: as §1, §2, §3

A549 = assay: Cell growth inhibition experiment (SRB), A549; type: cell-based; settings: Homo sapiens, A549, 96 h, 96 hours incubation, read-out: IC50 (μM) for cancer cell line A549
Experimental: as §2, §3

HEK293 = assay: Cell growth inhibition experiment (SRB), HEK293; type: cell-based, human; settings: Homo sapiens, HEK293, 96 h, 96 hours incubation, read-out: IC50 (μM) for cancer cell line HEK293
Experimental: as §2, §3

HUVEC = assay: Cell growth inhibition experiment (SRB), HUVEC; type: cell-based, human; settings: Homo sapiens, HUVEC, 96 h, 96 hours incubation, read-out: IC50 (μM) […]
Experimental: as §2, §3

HT29 = assay: Cell growth inhibition experiment (SRB), HT29; type: cell-based, human; settings: Homo sapiens, HT-29, 96 h, 96 hours incubation, read-out: IC50 (μM) for cancer cell line HT29
Experimental: as §2, §3

SK-OV-3 = assay: Cell growth inhibition experiment (SRB), SK-OV-3; type: cell-based, human; settings: Homo sapiens, SK-OV-3, 96 h, 96 hours incubation, read-out: IC50 (μM) for cancer cell line SK-OV-3
Experimental: as §2, §3

SMILES	IC50 [1]	IC50 [2]	IC50 [3]	IC50 [4]	IC50 (A549)	IC50 (HT29)	IC50 (SK-OV-3)	IC50 (HEK293)	IC50 (HUVEC)
CCOc1nc2occc2nc1NC(=O)N1CCN(c2cc(C)cc(F)c2)CC1 [Example 16, N-(3-Ethoxyfuro[2,3-b]pyrazin-2-yl)-4-(3-fluoro-5-methylphenyl)piperazine-1-carboxamide]	0.24 µM	0.44 µM	< 2.5 µM	< 2.5 µM	< 2.5 µM	< 2.5 µM	< 2.5 µM	< 2.5 µM	< 2.5 µM
CCOc1nc2occc2nc1NC(=O)N1CCN(c2cc(F)cc(F)c2)CC1 [Example 17, 4-(3,5-Difluorophenyl)-N-(3-ethoxyfuro[2,3-b]pyrazin-2-yl)piperazine-1-carboxamide]	0.24 µM	1.65 µM	< 2.5 µM	< 2.5 µM	< 2.5 µM	< 2.5 µM	< 2.5 µM	< 2.5 µM	< 2.5 µM
CCOc1nc2occc2nc1NC(=O)N1CCN(c2cc(C(F)(F)F)cc(C(F)(F)F)c2)CC1 [Example 19, 4-(3,5-Bis(trifluoromethyl)phenyl)-N-(3-ethoxyfuro[2,3-b]pyrazin-2-yl)piperazine-1-carboxamide]	0.34 µM	0.68 µM	1.23 µM	0.36 µM	0.44 µM	0.71 µM	< 2.5 µM	1.23 µM	0.68 µM
CCOc1nc2occc2nc1NC(=O)N1CCN(c2cccc(OC(F)(F)F)c2)CC1 [Example 20, N-(3-Ethoxyfuro[2,3-b]pyrazin-2-yl)-4-(3-(trifluoromethoxy)phenyl)piperazine-1-carboxamide]	0.25 µM	1.63 µM	0.36 µM	0.36 µM	0.24 µM	0.62 µM	0.22 µM	0.12 µM	0.21 µM
COc1cc(F)cc(N2CCN(C(=O)Nc3nc4cc(C)oc4nc3OC)CC2)c1 [Example 23, 4-(3-Fluoro-5-methoxyphenyl)-N-(3-methoxy-6-methylfuro[2,3-b]pyrazin-2-yl)piperazine-1-carboxamide]	0.36 µM	0.44 µM	0.44 µM	0.28 µM	0.63 µM	0.28 µM	0.36 µM	0.35 µM	0.45 µM
COc1cc(OCCN(C)C)cc(N2CCN(C(=O)Nc3nc4cc(C)oc4nc3OC)CC2)c1 [Example 24, 4-(3-(2-(Dimethylamino)ethoxy)-5-methoxyphenyl)-N-(3-methoxy-6-methylfuro[2,3-b]pyrazin-2-yl)piperazine-1-carboxamide]	0.12 µM	0.36 µM	0.44 µM	< 2.5 µM	0.87 µM	0.36 µM	0.12 µM	0.25 µM	< 2.5 µM
COc1nc2oc(C)cc2nc1NC(=O)N1CCN(c2cc(C)cc(C)c2)CC1 [Example 25, 4-(3,5-Dimethylphenyl)-N-(3-methoxy-6-methylfuro[2,3-b]pyrazin-2-yl)piperazine-1-carboxamide]	0.15 µM	< 2.5 µM	0.08 µM	0.17 µM	0.22 µM	0.25 µM	0.63 µM	0.36 µM	0.13 µM
COc1nc2oc(C)cc2nc1NC(=O)N1CCN(c2cc(F)cc(C(F)(F)F)c2)CC1 [Example 28, 4-(3-Fluoro-5-(trifluoromethyl)phenyl)-N-(3-methoxy-6-methylfuro[2,3-b]pyrazin-2-yl)piperazine-1-carboxamide]	< 2.5 µM	< 2.5 µM	< 2.5 µM	< 2.5 µM	< 2.5 µM	< 2.5 µM	< 2.5 µM	< 2.5 µM	< 2.5 µM
COc1nc2oc(C)cc2nc1NC(=O)N1CCN(c2cc(C(F)(F)F)cc(C(F)(F)F)c2)CC1 [Example 29, 4-(3,5-Bis(trifluoromethyl)phenyl)-N-(3-methoxy-6-methylfuro[2,3-b]pyrazin-2-yl)piperazine-1-carboxamide]	< 2.5 µM	< 2.5 µM	< 2.5 µM	< 2.5 µM	< 2.5 µM	< 2.5 µM	< 2.5 µM	< 2.5 µM	< 2.5 µM
CCOc1nc2oc(C)cc2nc1NC(=O)N1CCN(c2cc(OC)cc(OC)c2)CC1 [Example 31, 4-(3,5-Dimethoxyphenyl)-N-(3-ethoxy-6-methylfuro[2,3-b]pyrazin-2-yl)piperazine-1-carboxamide]	0.12 µM	0.36 µM	0.44 µM	1.63 µM	1.25 µM	< 2.5 µM	< 2.5 µM	< 2.5 µM	< 2.5 µM

Further molecules by falling IC50 [1], results first:

IC50 [1]	IC50 [2]	IC50 [3]	IC50 [4]	IC50 (A549)	IC50 (HT29)	IC50 (SK-OV-3)	SMILES	IC50 (HEK293)	IC50 (HUVEC)
1.32 µM	1.56 µM	< 2.5 µM	< 2.5 µM	< 2.5 µM	< 2.5 µM	< 2.5 µM	COc1nc2oc(C)cc2nc1NC(=O)N1CCN(c2cc(C)cc(F)c2)CC1 [Example 26, 4-(3-Fluoro-5-methylphenyl)-N-(3-methoxy-6-methylfuro[2,3-b]pyrazin-2-yl)piperazine-1-carboxamide]	< 2.5 µM	< 2.5 µM
0.68 µM	0.63 µM	0.54 µM	1.32 µM	0.25 µM	1.12 µM	1.12 µM	COc1nc2oc(C)cc2nc1NC(=O)N1CCN(c2cccc(OC(F)(F)F)c2)CC1 [Example 30, N-(3-Methoxy-6-methylfuro[2,3-b]pyrazin-2-yl)-4-(3-(trifluoromethoxy)phenyl)piperazine-1-carboxamide]	0.58 µM	1.12 µM
0.56 µM	1.13 µM	< 2.5 µM	< 2.5 µM	< 2.5 µM	< 2.5 µM	< 2.5 µM	COc1nc2oc(C)cc2nc1NC(=O)N1CCN(c2cc(F)cc(F)c2)CC1 [Example 27, 4-(3,5-Difluorophenyl)-N-(3-methoxy-6-methylfuro[2,3-b]pyrazin-2-yl)piperazine-1-carboxamide]	< 2.5 µM	< 2.5 µM
0.44 µM	0.24 µM	< 2.5 µM	< 2.5 µM	< 2.5 µM	< 2.5 µM	< 2.5 µM	CCOc1nc2occc2nc1NC(=O)N1CCN(c2cc(F)cc(C(F)(F)F)c2)CC1 [Example 18, N-(3-Ethoxyfuro[2,3-b]pyrazin-2-yl)-4-(3-fluoro-5-(trifluoromethyl)phenyl)piperazine-1-carboxamide]	< 2.5 µM	< 2.5 µM
0.44 µM	1.74 µM	2.12 µM	< 2.5 µM	1.63 µM	1.85 µM	1.85 µM	COc1cc(OC)cc(N2CCN(C(=O)Nc3nc4cc(C)oc4nc3OC)CC2)c1 [Example 21, 4-(3,5-Dimethoxyphenyl)-N-(3-methoxy-6-methylfuro[2,3-b]pyrazin-2-yl)piperazine-1-carboxamide]	1.25 µM	< 2.5 µM
0.44 µM	0.52 µM	0.32 µM	1.63 µM	1.39 µM	< 2.5 µM	< 2.5 µM	CCOc1nc2oc(C)cc2nc1NC(=O)N1CCN(c2cc(C)cc(OC)c2)CC1 [Example 32, N-(3-Ethoxy-6-methylfuro[2,3-b]pyrazin-2-yl)-4-(3-methoxy-5-methylphenyl)piperazine-1-carboxamide]	1.12 µM	< 2.5 µM
